In general, ED50 refers to the dose that gives a 50% effect, or the effect in half of the subjects.

Where two headings read alike, the source gives them in different places.

Series [1] has as its system bronchospasm. Put plainly: Antibronchospastic activity (aerosol ovalbumin, sensitized guinea pigs, oral). The class given is in vivo, guinea pig. The conditions noted are these: for Oral antibronchospastic activity (aerosol ovalbumin guinea-pig) A.U.C. 0 → 3h Index: ratio between equieffective doses of theophylline and tested compound, AUC of % inhibition 0-3 h. The procedure: Fasted (16 h) male and female guinea pigs were sensitized by ovalbumin (25 mg/Kg. s.c. and 25 mg/Kg. i.p.) (Herxheimer and Stresemann--Arch. It. Pharmacodyn. Ther. 125.126; 1960). After two weeks, animals were challenged, by an aerosol of 0.5% ovalbumin recording the latency time (T1) of the first bronchospasm. A week later, the test was repeated in the same animals 1-3 hours after drug administration (T2). % of inhibition was determined as [formula] where T1 was control latency time, T2 was latency time after drug administration. […] The area under curve (AUC) expressing the % inhibition plotted toward time (0-3 h) after drug dosing, was calculated.

A short description of series [2]: Acute toxicity (oral LD50). Further details: species or system male Swiss mice. Conditions: in vivo, mouse, deaths in ten days, Litchfield and Wilcoxon, limits in parentheses, max dose generally 500 mg/Kg, read-out: DL/50 (mouse os). The procedure: LD50 was calculated according to Litchfield and Wilcoxon method (J. Pharm. Expt. Ther. 96, 99; 1949). The maximum dose administered was generally 500 mg/Kg.

In series [3] the test system is heart rate and blood pressure. Conditions: in vivo, po. As to the method:
Fasted (16 h) normotensive male Wistar rats weighing 300-380 g. were used. The animals were prewarmed by means of infrared lamp for 15 min. before recording blood pressure and heart rate with the tale-cuff method (Maffii G. e Coll.--Arch. It. Sci. Farm. 12, 3; 1962). Recording were performed before and 30'-90'--3 h after oral drug administration. […] The % increase in heart rate was plotted against the log dose. […] In table 2 the average value of the indexes was reported.

A short description of series [4]: Effects on CNS: sleeping time following chlordiazepoxide (CDO) treatment. Conditions: mouse, in vivo, po. As to the method: (§1) Fasted (20 h) male Swiss mice (20 g b.w.) received orally the compounds 1 h before cardiazole (CZ) or chlordiazepoxide (CDO) administration.
(§2) In the untreated animals, CDO 100 mg/Kg i.p. induced sleep lasting 20-30 min. Sleeping time was defined as the time elapsing from the loss to the recovery of the righting reflex. Pretreated animals were observed up to a maximum of 6 h.

Series [5] can be described thus: Effects on CNS: cardiazole (CZ) induced convulsions. The conditions noted are these: mouse, in vivo, po. As to the method: as §1
CZ was injected i.p. in a fully convulsive dose which produced death in about 10% of animals (60-100 mg/Kg.). Appropriate dose was determined before each experimental session.
as §2

As to `CCCn1c(=O)c2c(nnn2CCN(CC)CC)n(-c2ccccc2)c1=O` [MX8257], the “Oral antibronchospastic activity (aerosol ovalbumin guinea-pig) A.U.C. 0 → 3h Index” value in series [1] was 1,8. Moreover, the LD50 at 240 h in series [2] is over 1350 µmol/kg. Besides, in series [3], the “Tachycardic effects (rat os) Index” value came out at 0.

For `CCCn1c(=O)c2nn(CCN(CC)CC)nc2n(-c2ccccc2)c1=O` [MX8258], the “Oral antibronchospastic activity (aerosol ovalbumin guinea-pig) A.U.C. 0 → 3h Index” value in series [1] is reported as 1,6. Moreover, the LD50 at 240 h in series [2] is over 1350 µmol/kg. Besides, the “Tachycardic effects (rat os) Index” value in series [3] was 0.

`CCCn1c(=O)c2c(nnn2CCN(C)C)n(CC(C)CC)c1=O` (centres unmarked) [MX8271]: in series [1], the “Oral antibronchospastic activity (aerosol ovalbumin guinea-pig) A.U.C. 0 → 3h Index” value was 1,9. In series [2], the LD50 at 240 h is over 1480 µmol/kg. For the same compound, in series [3], the “Tachycardic effects (rat os) Index” value was 0.

Consider `CCCn1c(=O)c2nn(CCN(C)C)nc2n(CC(C)CC)c1=O` (centres unmarked) [MX8272], for which, in series [1], the “Oral antibronchospastic activity (aerosol ovalbumin guinea-pig) A.U.C. 0 → 3h Index” value is 2,1. Further, the LD50 at 240 h in series [2] is 1370 µmol/kg. For the same compound, in series [3], the “Tachycardic effects (rat os) Index” value is 0.

As for `CCCn1c(=O)c2c(nnn2CCN2CCCCC2)n(-c2ccccc2)c1=O` [MX82103], in series [1], the “Oral antibronchospastic activity (aerosol ovalbumin guinea-pig) A.U.C. 0 → 3h Index” value is listed as 1,7. In addition, the LD50 at 240 h in series [2] was 910 µmol/kg. The “Tachycardic effects (rat os) Index” value in series [3] came to 0.

As to `CCCn1c(=O)c2nn(CCN3CCCCC3)nc2n(-c2ccccc2)c1=O` [MX82104], the “Oral antibronchospastic activity (aerosol ovalbumin guinea-pig) A.U.C. 0 → 3h Index” value in series [1] is listed as 2,1. In addition, the LD50 at 240 h in series [2] came out at 1310 µmol/kg. The “Tachycardic effects (rat os) Index” value in series [3] was 0.

Take `CCCn1c(=O)c2c(nnn2CCN2CCOCC2)n(-c2ccccc2)c1=O` [MX82105, 1-n-propyl-3-phenyl-7-(2-morpholinoethyl)-8-azaxanthine]: the “Oral antibronchospastic activity (aerosol ovalbumin guinea-pig) A.U.C. 0 → 3h Index” value in series [1] was 2,4. The LD50 at 240 h in series [2] is over 1300 µmol/kg. Further, the “Tachycardic effects (rat os) Index” value in series [3] was 0.

In the case of `CCCn1c(=O)c2nn(CCN3CCOCC3)nc2n(-c2ccccc2)c1=O` [MX82106, 1-n-propyl-3-phenyl-8-(2-morpholinoethyl)-8-azaxanthine], in series [1], the “Oral antibronchospastic activity (aerosol ovalbumin guinea-pig) A.U.C. 0 → 3h Index” value is 2,9. Besides, the LD50 at 240 h in series [2] was over 1300 µmol/kg. Besides, in series [3], the “Tachycardic effects (rat os) Index” value came out at 0.

As to `CCC(C)Cn1c(=O)[nH]c(=O)c2c1nnn2CCN(CC)CC` (centres unmarked) [MX82108], the “Oral antibronchospastic activity (aerosol ovalbumin guinea-pig) A.U.C. 0 → 3h Index” value in series [1] was 1,3. For the same compound, the LD50 at 240 h in series [2] is over 1550 µmol/kg. For the same compound, the “Tachycardic effects (rat os) Index” value in series [3] is recorded as 0.

For the compound `CCC(C)Cn1c(=O)[nH]c(=O)c2nn(CCN(CC)CC)nc21` (centres unmarked) [MX82109], in series [1], the “Oral antibronchospastic activity (aerosol ovalbumin guinea-pig) A.U.C. 0 → 3h Index” value is recorded as 1,1. Also, the LD50 at 240 h in series [2] is over 1550 µmol/kg. In addition, the “Tachycardic effects (rat os) Index” value in series [3] is reported as 0,3.

As to `Cn1c(=O)c2[nH]cnc2n(C)c1=O` [THEOPHYLLINE, 1.3-dimethylxanthine, reference compound], the ED50 in series [1] (Cavia porcellus, po, guinea pig, 0.5% ovalbumin aerosol, read-out: ED50, inhibition of bronchoconstriction) was 250 µmol/kg; in series [4], 75 µmol/kg; in series [5] it was 150 µmol/kg. Also, in series [3] (rat), the blood pressure effect entry was “slight hypotension”. Moreover, in series [3] (rat), the heart rate effect entry is given as “marked dose-dependent tachycardia”. For the same compound, the “dosage producing a 30% increase in heart rate” value amounted to 0.21 mmol/kg in series [3] (rat, 30 min); 0.36 mmol/kg in series [3] (rat, 90 min); 0.57 mmol/kg in series [3] (rat, 180 min).
